test system: HEK293 cells; assay: Preliminary screening as mRNA vectors, EGFP mRNA transfection of HEK293 cells; type: cell-based; conditions: EGFP mRNA 50 ng per well, 96-well plates; percentage of GFP fluorescent cells relative to total number of cells (Hoechst)
In short: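 Screening format: EGFP mRNA transfection (50 ng/well) into HEK293 in 10% FBS-supplemented DMEM. Percent green fluorescent cells, normalised to Hoechst nuclear count, gave the value; Lipofectamine2000 was the reference transfectant.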

| SMILES | Absolute mRNA transfection efficiency in HEK293 cells [%] |
| --- | --- |
| CCCCCCCCCCCCCCCCNc1nc(NCCN(C)C)nc(SCCCCCCCCCCCCCC)n1 [Compound D1S14N16] | 1.8 |
| CCCCCCCCCCCCCNc1nc(NCCCN(C)C)nc(SCCCCCCCC)n1 [Compound D6S8N13] | 58.0 |
| CCCCCCCCCCCCCCCCSc1nc(NCCCCCCCCC)nc(NCCN2CCN(C)CC2)n1 [Compound D5S16N9] | 68.1 |
| CCCCCCCCCCCNc1nc(NCCN2CCCC2)nc(SCCCCCCCC)n1 [Compound D3S8N11] | 6.6 |
| CCCCCCCCCCCCCCCCNc1nc(NCCN2CCCCC2)nc(SCCCCCCCCCCC)n1 [Compound D4S11N16] | 12.3 |
| CCCCCCCCCCCCCCCNc1nc(NCCCN(C)C)nc(SCCCCCCCCCCCCCCC)n1 [Compound D6S15N15] | 0.8 |
| CCCCCCCCCCCCCCCCNc1nc(NCCCN(C)C)nc(SCCCCCCCCCCCC)n1 [Compound D6S12N16] | 1.9 |
| CCCCCCCCCCCCCCCSc1nc(NCCCCCCCCCCCCC)nc(NCCCN(C)C)n1 [Compound D6S15N13] | 0.8 |
| CCCCCCCCCCSc1nc(NCCCCCCCC)nc(NCCCN(C)C)n1 [Compound D6S10N8] | 3.7 |
| CCCCCCCCCCCCCCCCCCSc1nc(NCCCCCC)nc(NCCCN(C)C)n1 [Compound D6S18N6] | 74.8 |
| CCCCCCCCCCCCCCCNc1nc(NCCN2CCN(C)CC2)nc(SCCCCCCCCCC)n1 [Compound D5S10N15] | 1.8 |
| CCCCCCCCCCCCCCCCNc1nc(NCCCN(C)C)nc(SCCCCCCCCCCCCCC)n1 [Compound D6S14N16] | 0.5 |
| CCCCCCCCCCCCN(CCCCCCCCCCCC)c1nc(NCCN(CC)CC)nc(SCCCCCCC)n1 [D7S7^2N12] | 1.2 |
| CCCCCCCCCCCNc1nc(NCCCN2CCOCC2)nc(SCCCCCCCC)n1 [Compound D8S8N11] | 7.9 |
| CCCCCCCCCCCCCCCCCCSc1nc(NCCCCCCC)nc(NCC2CCN(C)CC2)n1 [Compound D10S18N7] | 45.8 |
| CCCCCCCCCCCCN(CCCCCCCCCCCC)c1nc(NCCN2CCCC2)nc(SCCCCCCCCCCC)n1 [D3S11^2N12] | 0.0 |
| CCCCCCCCCCCCCCCCSc1nc(NCCN2CCCC2)nc(N(CCCCCCCCCCCC)CCCCCCCCCCCC)n1 [D3S16^2N12] | 0.2 |
| CCCCCCCSc1nc(NCCCCCC)nc(NCCCN(C)C)n1 [Compound D6S7N6] | 8.8 |
| CCCCCCCCCCCCCCCCCCNc1nc(NCCN2CCN(C)CC2)nc(SCCCCCCCCCCC)n1 [Compound D5S11N18] | 4.7 |
| CCCCCCCCCCCCCCCCCCNc1nc(NCCN(CC)CC)nc(SCCCCCCCCCCCCCC)n1 [Compound D7S14N18] | 0.4 |
| CCCCCCCCCCCCCCSc1nc(NCCCCCCCCCCCCC)nc(NCC2CCN(C)CC2)n1 [Compound D10S14N13] | 11.7 |
| CCCCCCCCCCCCCCCCCCNc1nc(NCCCN2CCN(C)CC2)nc(SCCCCCCC)n1 [Compound D9S7N18] | 37.1 |
| CCCCCCCCCCCCNc1nc(NCCCN2CCOCC2)nc(SCCCCCCCCCCCC)n1 [Compound D8S12N12] | 0.0 |

| SMILES | Absolute mRNA transfection efficiency in HEK293 cells [%] |
| --- | --- |
| CCCCCCCCCCCCSc1nc(NCCCCCCCCC)nc(NCCN(CC)CC)n1 [Compound D7S12N9] | 7.4 |
| CCCCCCCCCCCCCNc1nc(NCCCN(C)C)nc(SCCCCCCCCCC)n1 [Compound D6S10N13] | 10.2 |
| CCCCCCCCCCCCCCSc1nc(NCCN2CCCC2)nc(SCCCCCCC)n1 [Compound D3S7S14] | 14.6 |
| CCCCCCCCCCCCSc1nc(NCCCCCCCCC)nc(NCCN2CCN(C)CC2)n1 [Compound D5S12N9] | 26.5 |
| CCCCCCCCCCCNc1nc(NCCN(C)C)nc(SCCCCCCCCC)n1 [Compound D1S9N11] | 53.0 |
| CCCCCCCCCCCCCCCCCCSc1nc(NCCN(CC)CC)nc(N(CCCCCCCCCCCC)CCCCCCCCCCCC)n1 [D7S18^2N12] | 0.0 |
| CCCCCCCCCCCCN(CCCCCCCCCCCC)c1nc(NCCCN(C)C)nc(SCCCCCC)n1 [D6S6^2N12] | 0.0 |
| CCCCCCCCCCCCCCCNc1nc(NCCN2CCOCC2)nc(SCCCCCCC)n1 [Compound D2S7N15] | 3.1 |
| CCCCCCCCCCCCSc1nc(NCCCCCC)nc(NCCN(C)C)n1 [Compound D1S12N6] | 0.0 |
| CCCCCCCCCCCCCCCCCCSc1nc(NCCCCCCC)nc(NCCN2CCCC2)n1 [Compound D3S18N7] | 97.2 |
| CCCCCCCCCCCCCCSc1nc(NCCCCCC)nc(NCCN2CCCC2)n1 [Compound D3S14N6] | 66.7 |
| CCCCCCCCCCCCCCCCNc1nc(NCCN(CC)CC)nc(SCCCCCCCCCCC)n1 [Compound D7S11N16] | 4.4 |
| CCCCCCCCCCCCCCCNc1nc(NCCN2CCCC2)nc(SCCCCCCCC)n1 [Compound D3S8N15] | 21.8 |
| CCCCCCCCCCCCCCCSc1nc(NCCCCCCCCCCCC)nc(NCCCN2CCN(C)CC2)n1 [Compound D9S15N12] | 4.4 |
| CCCCCCCCCCSc1nc(NCCCCCCC)nc(NCCN2CCCC2)n1 [Compound D3S10N7] | 1.4 |
| CCCCCCCCCCCCCCCCSc1nc(NCCCCCCC)nc(NCCN2CCCC2)n1 [Compound D3S16N7] | 85.0 |
| CCCCCCCCCCCCCCSc1nc(NCCCCCCCCC)nc(NCCN2CCCCC2)n1 [Compound D4S14N9] | 4.0 |
| CCCCCCCCCCCCCCSc1nc(NCCCCCC)nc(NCCCN2CCOCC2)n1 [Compound D8S14N6] | 9.2 |
| CCCCCCCCCCCCCCCCSc1nc(NCCCCCCCCCCCCCCC)nc(NCC2CCN(C)CC2)n1 [Compound D10S16N15] | 2.6 |
| CCCCCCCCCCCNc1nc(NCCN(C)C)nc(SCCCCCC)n1 [Compound D1S6N11] | 1.0 |
| CCCCCCCCCCCCSc1nc(NCCCCCCCCC)nc(NCCN2CCOCC2)n1 [Compound D2S12N9] | 1.1 |
| CCCCCCCCCCCCCCCCNc1nc(NCCN2CCCCC2)nc(SCCCCCCCCC)n1 [Compound D4S9N16] | 2.2 |
| CCCCCCCCCCCCCCCCSc1nc(NCC2CCN(C)CC2)nc(SCCCCCC)n1 [Compound D10S6S16] | 85.5 |

| SMILES | Absolute mRNA transfection efficiency in HEK293 cells [%] |
| --- | --- |
| CCCCCCCCCCCCCCCCSc1nc(NCCCN2CCOCC2)nc(SCCCCCCC)n1 [Compound D8S7S16] | 22.7 |
| CCCCCCCCCCCCN(CCCCCCCCCCCC)c1nc(NCCCN(C)C)nc(SCCCCCCCCC)n1 [D6S9^2N12] | 1.7 |
| CCCCCCCCCCCCCCCCCCNc1nc(NCCN2CCCCC2)nc(SCCCCCC)n1 [Compound D4S6N18] | 1.8 |
| CCCCCCCCCCCNc1nc(NCCCN2CCOCC2)nc(SCCCCCCCCCC)n1 [Compound D8S10N11] | 0.1 |
| CCCCCCCCCCCCCCCCNc1nc(NCCN2CCCC2)nc(SCCCCCC)n1 [Compound D3S6N16] | 37.3 |
| CCCCCCCSc1nc(NCCN(CC)CC)nc(SCCCCCCC)n1 [Compound D7S7S7] | 18.4 |
| CCCCCCCCCSc1nc(NCCCCCC)nc(NCCN(C)C)n1 [Compound D1S9N6] | 1.1 |
| CCCCCCCCSc1nc(NCC2CCN(C)CC2)nc(SCCCCCC)n1 [Compound D10S6S8] | 6.6 |
| CCCCCCCCCCCCCNc1nc(NCCCN2CCN(C)CC2)nc(SCCCCCC)n1 [Compound D9S6N13] | 6.6 |
| CCCCCCCCCCCCCCCCCCNc1nc(NCCN2CCCCC2)nc(SCCCCCCCCCCCC)n1 [Compound D4S12N18] | 4.6 |
| CCCCCCCCCCCCCNc1nc(NCCN(C)C)nc(SCCCCCCCCCC)n1 [Compound D1S10N13] | 1.7 |
| CCCCCCCCCCCCCCCCCCNc1nc(NCCCN(C)C)nc(SCCCCCCCCCCCC)n1 [Compound D6S12N18] | 1.7 |
| CCCCCCCCCCCCCCCCCCNc1nc(NCCN2CCCCC2)nc(SCCCCCCCCCCCCCC)n1 [Compound D4S14N18] | 2.2 |
| CCCCCCCCCCCCCCCCCCSc1nc(NCCCCCCCCC)nc(NCCN2CCCCC2)n1 [Compound D4S18N9] | 0.2 |
| CCCCCCCCCCCSc1nc(NCCCCCCC)nc(NCCCN(C)C)n1 [Compound D6S11N7] | 29.1 |
| CCCCCCCCSc1nc(NCCN(CC)CC)nc(SCCCCCC)n1 [Compound D7S6S8] | 18.9 |
| CCCCCCCCCCCCSc1nc(NCCCCCC)nc(NCCCN(C)C)n1 [Compound D6S12N6] | 1.1 |
| CCCCCCCCCCCCCCSc1nc(NCCN2CCOCC2)nc(SCCCCCC)n1 [Compound D2S6S14] | 6.6 |
| CCCCCCCCCCCCCCSc1nc(NCCCCCC)nc(NCCN2CCCCC2)n1 [Compound D4S14N6] | 3.0 |
| CCCCCCCCSc1nc(NCCCCCCC)nc(NCCN(C)C)n1 [Compound D1S8N7] | 2.0 |
| CCCCCCCCCCCCCCSc1nc(NCCCCCCCCC)nc(NCCN2CCN(C)CC2)n1 [Compound D5S14N9] | 44.9 |
